Measured values reported in patent US20230310445A1, “LOX ENZYME INHIBITING METHODS AND COMPOSITIONS” (ANOVIA BIOSCIENCES, INC., priority 2020, published 2023).

Key:
[1] = target: T1, Bovine lysyl oxidase (LOX) (Bos taurus, UniProt P33072); test: LOX inhibition assay (fluorometric, cadaverine/Amplex Red/HRP); format: biochemical; settings: IC50 class; bovine tendon LOX, cadaverine substrate; read-out: Activity Range LOX
T1 construct: from tissue; host or cells: adult bovine tendon
T1 sequence (P33072 170-418): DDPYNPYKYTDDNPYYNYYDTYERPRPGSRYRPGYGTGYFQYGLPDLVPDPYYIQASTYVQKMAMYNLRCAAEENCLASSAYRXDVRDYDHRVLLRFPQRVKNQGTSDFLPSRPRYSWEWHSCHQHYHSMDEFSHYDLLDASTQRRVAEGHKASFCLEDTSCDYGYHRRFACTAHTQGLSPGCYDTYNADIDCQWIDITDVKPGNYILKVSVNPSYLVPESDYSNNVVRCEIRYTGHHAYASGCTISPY
Experimental: (§1) The ability of compounds to inhibit prototypic LOX was determined using a fluorometric assay. This assay measures the activity of lysyl oxidases by coupling the reaction with horseradish peroxidase-catalyzed […]. The activity assay protocol uses cadaverine as substrate that releases hydrogen peroxide upon transformation by prototypic LOX enzyme present in the sample. Hydrogen peroxide is in turn detected using a red fluorescence substrate for HRP-coupled reactions (Amplex Red Enzyme Assays, Thermo Scientific Fisher). This leads to increase in fluorescence that can be easily detected at Ex/Em=540/590 nm in a fluorescence microplate reader.
Enzyme: Bovine lysyl oxidase (LOX) was extracted by adapting the methodology from [Kagan et al. 1979 and Borel et al. 2001.] from bovine tendon: Frozen adult bovine tendon was placed in room temperature water to defrost, and then membranes were removed and the remaining tissue cut into 1 cm pieces. The material was first passed through a course mesh meat grinder, and this mince was passed through a fine mesh grinder. The mince was homogenized in 10 v/w of buffer (16 mM sodium phosphate buffer pH 7.8, 400 mM NaCl) using a Waring blender. The homogenate was centrifuged at 15,000×g for 15 min at 4° C. After centrifugation, the supernatant was discarded and the pellets resuspended in 10 volumes of the same buffer. The mixture was blended again and centrifuged with the same settings. This time the pellets were blended in 3 volumes of extraction buffer (16 mM sodium phosphate buffer pH 7.8) and left to incubate at 4° C. for 2 h. After this time, the slurry was centrifuged with the same settings as described above. The supernatant was used in an ultrafiltration step to remove large proteins by size exclusion through a 30 kDalton filter (EMD Millipore). The filtrate was mixed with DEAE Sephadex (GE Healthcare), or passed over a MonoQ FPLC column. After two washes, one in 16 mM sodium phosphate buffer pH 7.8, 380 mM NaCl, and another in 16 mM sodium phosphate buffer pH 7.8, the proteins were eluted with 16 mM sodium phosphate pH 7.8, 10 μM CuSO4, and 4 M urea. Fractions containing Lox activity were collected and stored frozen at −70° C.
Reaction: Final concentration in the LOX assay was as following and performed in a total volume of […]:
Experimental procedure: 7 μl of freshly prepared reaction buffer were delivered to reaction wells. Compounds were resuspended in 100% DMSO at 10 mM and delivered into buffer using acoustic technology (Echo550; nanoliter range). A 2.85× solution of LOX protein in reaction buffer was prepared (“LOX solution”) and 7 μl of LOX solution was added into the reaction wells. Buffer only was added to column 1 for no protein control. Reactions were incubated for 30 minutes at 37° C. A 3.33× mixture of cadaverine, Amplex Red, and HRP (“Substrate/Detection Mix) was prepared and subsequently 6 μL of the mixture was added to each reaction well. Progress of reactions was monitored for 120 minutes at 37° C. using Clariostar plate reader (ex530-12, ems 600-40). For all activity assays, pan-LOX inhibitor CCT365623 (Tang et al, 2017) and LOXL2/LOXL3 inhibitor PAT-1251 (PharmaKea) were included as standards.
Data analysis: Slope of the linear portion of the progress curve was calculated using Clariostar software. Typical analysis interval was between 20-50 min, but varied between experiments. The background subtracted signals (No protein wells were considered as background) were converted to % activity relative to DMSO controls. Data was analyzed using GraphPad Prism 4 with “sigmoidal dose-response (variable slope)”; 4 parameters with Hill Slope. Constraints: Bottom=Constant equal to 0. Top=Must be less than 120.

[2] = target: T2, Recombinant human LOXL2 (lysyl oxidase like 2) (Homo sapiens, UniProt Q9Y4K0); test: LOXL2 inhibition assay (fluorometric, cadaverine/Amplex Red/HRP); format: biochemical; settings: IC50 class; recombinant human LOXL2, cadaverine substrate; read-out: Activity Range LOXL2
T2 construct: purchased R&D systems
T2 sequence (Q9Y4K0 26-774): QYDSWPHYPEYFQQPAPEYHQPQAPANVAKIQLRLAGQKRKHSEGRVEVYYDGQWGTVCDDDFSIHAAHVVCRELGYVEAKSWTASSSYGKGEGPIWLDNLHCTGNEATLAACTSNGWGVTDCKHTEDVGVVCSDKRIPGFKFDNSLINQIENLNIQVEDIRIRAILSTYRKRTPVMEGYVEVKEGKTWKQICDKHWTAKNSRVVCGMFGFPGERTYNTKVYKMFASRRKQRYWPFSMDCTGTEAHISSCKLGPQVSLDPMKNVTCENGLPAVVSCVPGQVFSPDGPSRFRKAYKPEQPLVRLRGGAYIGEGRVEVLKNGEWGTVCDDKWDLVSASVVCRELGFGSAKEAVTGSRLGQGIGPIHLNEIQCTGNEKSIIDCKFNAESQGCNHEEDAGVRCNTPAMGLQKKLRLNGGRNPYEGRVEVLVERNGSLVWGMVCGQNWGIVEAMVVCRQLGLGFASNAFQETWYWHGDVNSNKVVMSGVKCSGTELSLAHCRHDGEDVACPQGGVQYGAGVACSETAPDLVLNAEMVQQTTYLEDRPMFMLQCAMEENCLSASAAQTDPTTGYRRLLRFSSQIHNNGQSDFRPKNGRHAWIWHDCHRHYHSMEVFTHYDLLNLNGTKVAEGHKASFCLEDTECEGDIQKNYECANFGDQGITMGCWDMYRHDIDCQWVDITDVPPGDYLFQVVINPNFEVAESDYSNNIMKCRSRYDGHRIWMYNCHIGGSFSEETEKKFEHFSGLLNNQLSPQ
Experimental: as §1, with “inhibit one or more of the lysyl oxidases LOXL2 and/or LOXL3” for “inhibit prototypic LOX”, “by the specific” for “by prototypic”, “LOX family” for “LOX”
Enzymes: Recombinant human LOXL2 (lysyl oxidase like 2) and recombinant human LOXL3 (lysyl oxidase like 3) were purchased from R&D systems and assays were performed in 1.2 M urea, 50 mM sodium borate buffer pH 8.0, and 10 mM CaCl.
Reaction: Final concentration in the LOXL2 and LOXL3 assays were as following and performed in a total volume of […]:
Experimental procedure: 5 μl of freshly prepared reaction buffer were delivered to reaction wells. Compounds were resuspended in 100% DMSO at 10 mM and delivered into buffer using acoustic technology (Echo550; nanoliter range). A 3× solution of LOXL2 or LOXL3 in reaction buffer was prepared (“enzyme solution”) and 5 μL of enzyme solution was added into the reaction wells. Buffer only was added to column 1 for no protein control. Reactions were incubated for 30 minutes at 37° C. A 3×mixture of cadaverine, Amplex Red, and HRP (“Substrate/Detection Mix) was prepared and subsequently 5 μL of the mixture added to each reaction well. Progress of reactions was monitored for 60 minutes at 37° C. using Clariostar plate reader (ex 530-12, ems 600-40). For all activity assays, pan-LOX inhibitor CCT365623 (Tang et al, 2017) and LOXL2/LOXL3 inhibitor PAT-1251 (PharmaKea) were included as standards.
Data analysis: Slope of the linear portion of the progress curve was calculated using Clariostar software. Typical analysis interval was between 8-30 min, but varied between experiments. The background subtracted signals (No protein wells are considered as background) were converted to % activity relative to DMSO controls. Data was analyzed using GraphPad Prism 4 with “sigmoidal dose-response (variable slope)”; 4 parameters with Hill Slope. Constraints: Bottom=Constant equal to 0. Top=Must be less than 120.

SMILES | IC50 [1] | IC50 [2]
NCc1cncc(S(=O)(=O)N2C[C@@H](C(=O)N3CCOCC3)C[C@@H](c3ccccc3)C2)c1 (racemic) [Example 131, cis-(1-((5-(Aminomethyl)pyridin-3-yl)sulfonyl)-5-phenylpiperidin-3-yl)(morpholino)methanone 2,2,2-trifluoroacetate] | > 30 µM | 1 to 30 µM
NCc1ccc(S(=O)(=O)N2C[C@@H](C(=O)N3CCCCC3)C[C@@H](c3ccccc3)C2)s1 (racemic) [Example 11, cis-(1-((5-(Aminomethyl)thiophen-2-yl)sulfonyl)-5-phenylpiperidin-3-yl)(piperidin-1-yl)methanone 2,2,2-trifluoroacetate] | ≤ 0.5 µM | ≤ 0.5 µM
CS(=O)(=O)[C@@H]1C[C@H](Oc2cccc(CN)c2)CN(c2ccccc2)C1 (racemic) [Example 21, cis-(3-((-5-(Methylsulfonyl)-1-phenylpiperidin-3-yl)oxy)phenyl)methanamine 2,2,2-trifluoroacetate] | > 30 µM | 0.5 to 1 µM
NCc1ccc(S(=O)(=O)N2C[C@@H](C(=O)N3CCS(=O)(=O)CC3)C[C@@H](C3CCCCC3)C2)s1 (racemic) [Example 121, cis-(1-((5-(Aminomethyl)thiophen-2-yl)sulfonyl)-5-cyclohexylpiperidin-3-yl)(1,1-dioxidothiomorpholino)methanone 2,2,2-trifluoroacetate] | ≤ 0.5 µM | ≤ 0.5 µM
NCc1cccc(S(=O)(=O)[C@H]2C[C@@H](C(=O)N3CCOCC3)CN(C3CCCCC3)C2)c1 (racemic) [Example 142, cis-(5-((3-(Aminomethyl)phenyl)sulfonyl)-1-cyclohexylpiperidin-3-yl)(morpholino)methanone 2,2,2-trifluoroacetate] | > 30 µM | ≤ 0.5 µM
NCc1cncc(S(=O)(=O)N2C[C@@H](C(=O)N3CCS(=O)(=O)CC3)C[C@@H](c3ccccc3)C2)c1 (racemic) [Example 132, cis-(1-((5-(Aminomethyl)pyridin-3-yl)sulfonyl)-5-phenylpiperidin-3-yl)(1,1-dioxidothiomorpholino)methanone 2,2,2-trifluoroacetate] | > 30 µM | 1 to 30 µM
CS(=O)(=O)N1CCN(C(=O)[C@@H]2C[C@@H](c3ccccc3)CN(S(=O)(=O)c3cccc(CN)n3)C2)CC1 (racemic) [Example 116T, trans-(1-((6-(Aminomethyl)pyridin-2-yl)sulfonyl)-5-phenylpiperidin-3-yl)(4-(methylsulfonyl)piperazin-1-yl)methanone 2,2,2-trifluoroacetate] | > 30 µM | 1 to 30 µM
CS(=O)(=O)[C@H]1C[C@@H](S(=O)(=O)c2ccc(CN)cc2)CN(c2ccccc2)C1 (racemic) [Example 22, cis-(4-((5-(Methylsulfonyl)-1-phenylpiperidin-3-yl)sulfonyl)phenyl)methanamine 2,2,2-trifluoroacetate] | 1 to 30 µM | ≤ 0.5 µM
CS(=O)(=O)N1C[C@H](Oc2cc(CN)ccc2F)C[C@H](c2ccccc2)C1 (racemic) [Example 69, cis-(4-Fluoro-3-((-1-(methylsulfonyl)-5-phenylpiperidin-3-yl)oxy)phenyl)methanamine 2,2,2-trifluoroacetate] | > 30 µM | ≤ 0.5 µM
CN(C)C(=O)[C@@H]1C[C@H](S(=O)(=O)c2cccc(CN)c2)CN(C2CCCCC2)C1 (racemic) [Example 141, cis-5-((3-(Aminomethyl)phenyl)sulfonyl)-1-cyclohexyl-N,N-dimethylpiperidine-3-carboxamide] | > 30 µM | ≤ 0.5 µM
CN1CCN(C(=O)[C@H]2C[C@@H](N3CCCCC3)CN(S(=O)(=O)c3cc(CN)ccn3)C2)CC1 (racemic) [Example 150, cis-(1′-((4-(Aminomethyl)pyridin-2-yl)sulfonyl)-[1,3′-bipiperidin]-5′-yl)(4-methylpiperazin-1-yl)methanone 2,2,2-trifluoroacetate] | 1 to 30 µM | 0.5 to 1 µM
NCc1cccc(S(=O)(=O)[C@H]2C[C@H](C(=O)N3CCOCC3)CN(C3CCCCC3)C2)c1 (racemic) [Example 142T, trans-(5-((3-(Aminomethyl)phenyl)sulfonyl)-1-cyclohexylpiperidin-3-yl)(morpholino)methanone 2,2,2-trifluoroacetate] | > 30 µM | ≤ 0.5 µM
